Laboratory results published in US20260108588A1, “A COMPLEX COMPRISING A ALPHA-LACTALBUMIN AND A FATTY ACID OR LIPID FOR USE IN THE TREATMENT OR PREVENTION OF CANCER” (LINNANE PHARMA AB, priority 2022, published 2026).

How the values were obtained:
[1] = system: intestinal gene expression; experiment: Transcriptomic analysis of intestinal tissue of Apc^Min/+ mice; format: in vivo
Description: Approximately 5 mg of tissue was homogenized using a Tissuelyser (Qiagen) and total RNA was extracted using the RNeasy kit (Qiagen), amplified using a GeneChip 3'IVT Express Kit, hybridized onto Mouse Genome 430 PM array strips, and scanned using the GeneAtlas system (Affymetrix). Data was normalized using Robust Multi Average implemented in the Transcriptome Analysis Console software (v.4.0.1.36, Applied Biosystems, ThermoFisher Scientific). Relative expression was analyzed by ANOVA using the empirical Bayes method, and genes with an absolute fold change >1.5 or 2.0 were considered differentially expressed. Heat maps were constructed using Graphpad Prism 9 and differentially expressed genes were analyzed using Ingenuity Pathway Analysis software (IPA, Qiagen).

[2] = system: Wnt/β-catenin signaling pathway; experiment: Gene expression analysis of lungs, livers and kidneys of Apc^Min/+ mice; format: in vivo; settings: BAMLET treated compared to sham treated Apc^Min/+ mice
[3] = system: DLD1 colorectal carcinoma cells; experiment: Live cell imaging assay, cellular uptake of labelled BAMLET; format: cell-based, human; settings: 21 μM, one hour
Description: To visualize the cellular uptake of BAMLET, cells were seeded on 6-well ibidi chambers (3.5×10^4 cells/well) overnight and then treated with Janelia Fluor-549 labeled (TOCRIS, Cat #6147) BAMLET mixed with unlabelled BAMLET (21 μM) for one hour at 37° C. The nuclei were counterstained for five minutes with DAPI (Abcam Cat #ab228549, 1:1,000) and uptake of labelled BAMLET was captured with the LSM 900 laser scanning confocal microscope with oil immersion ×63 objectives (Carl Zeiss).

[4] = system: intestine of tumor bearing APC^Min/+ mice; experiment: Real-time in vivo fluorescence imaging and immunohistochemistry of BAMLET in tumor-bearing mice
Description: Swiss rolls of longitudinally opened intestinal segments were fixed overnight in 10% neutral buffered formalin. Samples were embedded in paraffin and 5 μm thick sections were further processed for histology and immunohistochemistry using antibodies for bovine alpha-Lactalbumin (ThermoFisher Scientific, Cat #A10-128A), β-catenin (CellSignaling, Cat #9562), Cyclin D1 (ThermoFisher Scientific, Cat #SC8396), Ki-67 (BD Biosciences, Cat #556003), VEGF (Abcam, Cat #ab46154), PD-1 (Abcam, Cat #ab214421) and TTF-1 (Abcam, Cat #ab227652) as previously described^28 with slight modifications. Citrate buffer (Dako Target Retrieval Solution, Agilent, Cat #S1699) was used for antigen retrieval for Cyclin D1, Ki-67, VEGF, bovine alpha-Lactalbumin and β-catenin staining. EDTA buffer (Abcam, Cat #ab64216) was used for antigen retrieval for TTF-1 staining. Immunohistochemistry was quantified by ImageJ. For Hematoxylin-Eosin (H&E) staining, Hematoxylin (ThermoFisher Scientific, Cat #7211) was used followed by Eosin-Y (ThermoFisher Scientific, Cat #7111) for counterstaining. Images were captured using the AX10 microscope or the Hamamatzu Nanozoomer scanner (Carl Zeiss) and the DAB-positive beta-catenin antibody fields (4-10) for each organ cross-sections were quantified by ImageJ.
BAMLET was labeled using VivoTag 680XL Protein Labeling Kit (Perkin Elmer). Apc^Min/+ mice were orally gavaged with 10 mg of VivoTag 680-labelled BAMLET in 200 μl of PBS. The intestinal tissue samples were collected after 24 hours or 48 hours and imaged using an IVIS Spectrum imaging system (Perkin Elmer). BAMLET signal was acquired at fluorescent settings with 680 nm excitation.

[5] = system: intestine of healthy C57BL/6 mice; experiment: Real-time in vivo fluorescence imaging of BAMLET in healthy mice; settings: oral gavage
[6] = system: DLD1 colorectal adenocarcinoma cells; experiment: TUNEL assay; format: cell-based, human; settings: 7 μM, 21 μM and 35 μM, one hour
Description: DNA fragmentation was detected using the terminal deoxynucleotidyl transferase dUTP nick end-labeling (TUNEL) assay (Click-IT TUNEL Alexa Fluor 488 imaging assay kit, ThermoFisher Scientific, #C10245). DLD1 cells were seeded in 8-well chamber slide (2×10^4 cells/well) cultured overnight (37° C., 5% CO2) and incubated with BAMLET 7 μM, 21 μM and 35 μM for one hour in serum-free RPMI-1640 at 37° C. Cells were fixed (2% PFA, 15 minutes), permeabilized (0.25% Triton X-100 in PBS, 20 minutes) and incubated with TUNEL reaction mixture containing TdT for 60 minutes at 37° C. After the TUNEL reaction, cells were incubated with Click-iT reaction mixture for 30 minutes. Cells were counterstained with Hoechst 33342 (1:1000, 15 minutes, ThermoFisher Scientifi, Cat #62249), mounted in Fluoromount aqueous mounting media (Sigma, Cat #4680), and examined by LSM 900 confocal microscopy (Carl Zeiss). Fluorescence intensities were quantified by ImageJ.

[7] = system: PD-1; experiment: PD-1 staining of intestinal sections; format: in vivo, mice; settings: tumor and healthy tissue areas, long-term drinking water, vs sham
Description: For PD-1 immunofluorescence staining, paraffin sections were deparaffinized in xylene, rehydrated with reduced ethanol concentrations and then washed with deionized water. The slides were then immerged in target retrieval solution (Dako, S1699) and boiled for 20 minutes, followed by 30 minutes permeabilization with 0.25% Triton in PBS at room temperature. A blocking solution consisting in 5% goat serum in PBS was added on the sections for 1 h at room temperature, before adding the rabbit monoclonal anti-mouse PD-1 antibody (Abcam-ab214421, 1:150) in 1% goat serum and incubated overnight at 4° C. The slides were then washed with 0.025% PBS-T and stained with goat anti-rabbit […] secondary antibody (1:200 for 1 h at room temperature, Invitrogen cat. n. A11034). The nuclei were counterstained with DAPI for 15 minutes, washed in PBS, and then mounted with Fluoromount aqueous mounting media (Sigma, F4680). Images were captured with the Hamamatzu Nanozoomer scanner and the fluorescence intensity was quantified by ImageJ.

[8] = system: HT29 cells; experiment: Colony assay; format: cell-based, human; settings: HT29, 7, 21 and 35 μM
Description: (§1) Cells were seeded on 12-well plates (1×10^3 cells/well) and incubated overnight. Cells were treated with different complexes: BAMLET (7, 21, and 35 μM) or alpha1-oleate (7, 21, and 35 μM) in serum-free media and incubated for one hour at 37° C., 5% CO2. The incubation was continued after the addition of FCS to the media. On day ten post-treatment, the cells were washed once and fixed with cold methanol (300 μl) for 15 minutes on ice. Finally, colonies of cells were stained with hematoxylin (ThermoFisher Scientific, Cat #7211) for five minutes and images were captured under a dissecting microscope (Carl Zeiss). The experiment was repeated twice for each cell line.

[9] = system: DLD1 cells; experiment: Colony assay; format: cell-based, human; settings: DLD1, 7, 21 and 35 μM
Description: as §1

BAMLET
intestinal gene expression compared to healthy C57BL/6 mice ([1]; BAMLET treated Apc^Min/+ mice in contrast to sham, including cancer related biofunctions): significantly less affected
number of genes regulated at all time points (shared genes) ([1]; BAMLET treated vs sham, cut-off fold change ≥2.0): 2339
cancer-related biofunctions ([1]; BAMLET treated vs sham, gavage or drinking water, shared genes): inhibited
Wnt/β-catenin signaling (network analysis of shared genes) ([1]; genes regulated at all time points (2w pt, 5w pt, 8w dw), vs sham): inhibited
Wnt/β-catenin signaling pathway, intestinal gene expression ([1]; long-term follow up, BAMLET in drinking water): inhibited
PD-1 pathway activation (gene expression) ([1]; long-term, BAMLET treated Apc^Min/+ mice compared to healthy C57BL/6 mice): reduced PD-1 pathway activation
PD-1 pathway (gene expression) ([1]; long-term, direct comparison BAMLET treated vs sham): most strongly down-regulated
CD44 and its ligand SPP1 (osteopontin) expression ([1]; tumor microenvironment pathway, BAMLET vs sham): most strongly inhibited genes in the tumor microenvironment pathway
principal component analysis of mRNA profiles ([1]; whole intestinal tissue): formed a cluster near the healthy mice and distant from the sham group
Wnt/β-catenin signaling pathway in lungs, livers and kidneys (gene expression) [2]: down-regulated
uptake of labelled BAMLET [3]: rapidly internalized into the cytoplasm and nuclei
retention of VivoTag 680-labeled BAMLET in the intestine ([4]; 18-week-old APC^Min/+ mice, oral gavage, after 24 and 48 hours): Significant retention
time retained in tumor tissue ([4]; after the first oral dose): at least 48 hours
BAMLET staining in intestinal tissue sections ([4]; immunohistochemistry with BAMLET specific antibodies): detected
BAMLET retention in the intestines of healthy mice [5]: lack of BAMLET retention
TUNEL staining (DNA strand breaks) [6]: Dose-dependent increase
PD-1 staining [7]: significantly lower
colony-forming cells after ten days [8]: lasting effect
colony-forming cells after ten days [9]: lasting effect
